Experimental data taken from article PMC4978154, “Phase I metabolites of mephedrone display biological activity as substrates at monoamine transporters” (British Journal of Pharmacology, 2016).
Several values for one entry are separate records, joined by “and”; a condition that tells them apart may be missing. Equal entries are not always repeated.

Columns and labels:
Format in all cases: cell-based
hDAT [1] = molecular target: T1, hDAT (Homo sapiens, UniProt Q01959); assay: Transporter release (superfusion) assay in HEK293 cells expressing hDAT
T1 construct: expressed in transfected cells
Procedure: (§1) The generation of HEK293 cells stably expressing the human isoforms of DAT (hDAT) and NET (hNET) was carried out as described previously (Scholze et al., 2002). For SERT, the human isoform (hSERT) was cloned in frame with yellow fluorescent protein (Schmid et al., 2001). The generation of a stable cell line was performed as described by Hilber and colleagues (Hilber et al., 2005). HEK293 cells were maintained in humidified atmosphere (5% CO2, 37°C) in DMEM, supplemented with 10% heat‐inactivated FBS and penicillin (100 u 100 mL^−1) and streptomycin (100 μg 100 mL^−1). Selection pressure was maintained by adding geneticin (50 μg·mL^−1) to the cell culture media.
(§2) Superfusion experiments were performed as described previously (Scholze et al., 2002). Briefly, HEK293 cells expressing the desired transporter were seeded at a density of 40 000 cells per well onto poly‐D‐lysine‐coated 5 mm glass cover slips in 96‐well plates 24 h prior to the experiment. Cells were preloaded with [^3H]‐MPP^+ (0.1 μM, hDAT and hNET) or [^3H]‐5‐HT (0.4 μM, hSERT) for 20 min at 37°C in a final volume of 100 μL per well. Subsequently, glass coverslips were transferred into small superfusion chambers (volume of 200 μL) and superfused with KHB at 25°C with a superfusion rate of 0.7 mL·min^−1 for 40 min to establish a stable basal efflux. After washout, the collection of 2‐min fractions was initiated. After the first three basal fractions, monensin (10 μM) or solvent was added for four fractions. Consequently, the cells were challenged with test drugs (10 μM) for five fractions in the presence or absence of monensin. Finally, the cells were lysed in 1% SDS to determine the total radioactivity. Radioactivity per fraction was assessed by a liquid scintillation counter and expressed as fractional release, that is, the percentage of released ^3H in relation to total ^3H present at the beginning of the fraction (Sitte et al., 2000). For analysis, release was expressed as AUC.
(§3) Calculations were performed using Microsoft Excel® 2010 (Microsoft Corporation, Redmond, WA, USA) and GRAPHPAD PRISM 5.0. (GraphPad Software Inc., La Jolla, CA, USA). IC50 values for uptake inhibition and EC50 values for release were determined by nonlinear regression fits. Release data expressed as AUC were analysed by one‐way ANOVA followed by Bonferroni's multiple comparison test. Microdialysis and locomotor data were analysed by two‐way ANOVA (drug treatment × time) followed by Bonferroni's test. The effect of monensin treatment on basal efflux of tritiated substrate was analysed with the Mann–Whitney test. P values less than 0.05 (i.e. P < 0.05) were considered significant. The data and statistical analysis comply with the recommendations on experimental design and analysis in pharmacology (Curtis et al., 2015).
Data from uptake inhibition assays cannot distinguish whether test drugs act as non‐transported inhibitors or transportable substrates, which evoke release (Scholze et al., 2000; Sitte et al., 2000; Baumann et al., 2013). Therefore, mephedrone and its metabolites were tested in release assays to further explore their interaction with transporters. The release assays were performed with the same transporter‐expressing HEK293 cell lines described above and used a superfusion system (Sitte et al., 2000). As described previously, efflux of preloaded [^3H]‐MPP^+ or [^3H]‐5‐HT was monitored in the presence or absence of monensin (10 μM) (Scholze et al., 2000). […]

hDAT [2] = molecular target: T1, hDAT; assay: Transporter uptake inhibition in HEK293 cells expressing hDAT; conditions: [3H]-MPP+ uptake
Procedure: as §1
(§4) Uptake experiments were conducted as described previously (Sitte et al., 2001) with minor modifications. In brief, HEK293 cells expressing hDAT, hNET or hSERT were seeded into poly‐D‐lysine (PDL) coated 96‐well plates at a density of 40 000 cells per well. The next day, DMEM was aspirated and replaced with Krebs HEPES buffer (KHB, 25 mM HEPES, 120 mM NaCl, 5 mM KCl, 1.2 mM CaCl2, and 1.2 mM MgSO4, 5 mM D‐glucose, pH adjusted to 7.3 with NaOH) (200 μL per well), and cells were pre‐incubated with various concentrations of mephedrone or its metabolites for 5 min (50 μL per well). Subsequently, 0.1 μM of [^3H]‐5‐HT or 0.02 μM of [^3H]‐MPP^+ were added, and uptake was terminated after 1 (hSERT) or 3 min (hDAT, hNET) by washing the cells with 200 μL of ice‐cold KHB. Cells were lysed with 1% SDS, and tritium uptake was determined by scintillation counting. Nonspecific uptake was determined in the presence of 10 μM paroxetine (hSERT) or 10 μM mazindol (hDAT and hNET).
as §3

hSERT = molecular target: T2, hSERT (Homo sapiens, UniProt P31645); assay: Transporter uptake inhibition in HEK293 cells expressing hSERT; conditions: [3H]-5-HT uptake
T2 construct: yellow fluorescent protein (YFP); expressed in transfected cells
Procedure: as §1, §4, §3

hNET [3] = molecular target: T3, hNET (Homo sapiens, UniProt P23975); assay: Transporter uptake inhibition in HEK293 cells expressing hNET; conditions: [3H]-MPP+ uptake
T3 construct: expressed in transfected cells
Procedure: as §1, §4
as §3, with “GRAPHPAD” left out

hNET [4] = molecular target: T3, hNET; assay: Transporter release (superfusion) assay in HEK293 cells expressing hNET; conditions: test drug 10 μM, monensin 10 μM; post hoc Bonferroni
Procedure: as §1
as §2, with “Consequently, the cells were challenged with test drugs (10 μM) for five fractions in the presence or absence of monensin.” left out
as §3, with “(GraphPad Software Inc., La Jolla, CA, USA).” left out, “P values less than 0.05 (i.e. P < 0.05) were considered significant. The data and statistical analysis comply with the recommendations on experimental design and analysis in pharmacology (Curtis et al., 2015).” left out
Data from uptake inhibition assays cannot distinguish whether test drugs act as non‐transported inhibitors or transportable substrates, which evoke release (Scholze et al., 2000; Sitte et al., 2000; Baumann et al., 2013). […] As described previously, efflux of preloaded [^3H]‐MPP^+ or [^3H]‐5‐HT was monitored in the presence or absence of monensin (10 μM) (Scholze et al., 2000). […]

T1 sequence (Q01959 whole entry, the tested form may be a part): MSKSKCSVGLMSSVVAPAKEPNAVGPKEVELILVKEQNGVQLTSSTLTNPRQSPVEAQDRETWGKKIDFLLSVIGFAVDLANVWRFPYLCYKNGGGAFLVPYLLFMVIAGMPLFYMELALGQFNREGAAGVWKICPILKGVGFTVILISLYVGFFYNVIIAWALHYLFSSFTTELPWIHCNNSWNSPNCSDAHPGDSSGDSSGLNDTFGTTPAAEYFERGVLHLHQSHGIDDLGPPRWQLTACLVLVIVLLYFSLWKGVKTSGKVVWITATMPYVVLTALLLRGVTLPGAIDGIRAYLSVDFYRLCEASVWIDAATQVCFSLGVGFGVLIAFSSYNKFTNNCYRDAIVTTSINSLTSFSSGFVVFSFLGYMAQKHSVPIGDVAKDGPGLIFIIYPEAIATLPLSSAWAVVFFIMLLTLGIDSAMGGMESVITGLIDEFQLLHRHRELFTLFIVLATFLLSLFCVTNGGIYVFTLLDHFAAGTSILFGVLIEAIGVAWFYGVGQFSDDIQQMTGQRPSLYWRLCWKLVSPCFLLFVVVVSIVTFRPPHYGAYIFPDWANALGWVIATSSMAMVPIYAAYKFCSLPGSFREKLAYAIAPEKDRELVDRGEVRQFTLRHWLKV
T3 sequence (P23975 whole entry): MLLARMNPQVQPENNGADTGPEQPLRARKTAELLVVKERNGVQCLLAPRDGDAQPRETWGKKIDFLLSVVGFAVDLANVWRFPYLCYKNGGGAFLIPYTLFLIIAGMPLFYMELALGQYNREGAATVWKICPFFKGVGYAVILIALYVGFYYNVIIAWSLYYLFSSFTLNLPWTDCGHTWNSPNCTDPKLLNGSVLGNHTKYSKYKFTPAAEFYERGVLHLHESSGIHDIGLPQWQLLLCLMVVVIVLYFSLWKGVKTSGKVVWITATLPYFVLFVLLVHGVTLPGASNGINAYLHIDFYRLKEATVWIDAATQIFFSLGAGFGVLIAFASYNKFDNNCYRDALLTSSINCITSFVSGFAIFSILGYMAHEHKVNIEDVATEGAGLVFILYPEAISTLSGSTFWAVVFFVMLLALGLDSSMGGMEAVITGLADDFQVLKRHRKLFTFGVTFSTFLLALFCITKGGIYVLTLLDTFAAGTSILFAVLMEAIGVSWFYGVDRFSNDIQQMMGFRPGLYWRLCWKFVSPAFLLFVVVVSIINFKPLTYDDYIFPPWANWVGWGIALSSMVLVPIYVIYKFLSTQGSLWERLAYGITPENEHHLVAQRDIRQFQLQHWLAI
T2 sequence (P31645 whole entry): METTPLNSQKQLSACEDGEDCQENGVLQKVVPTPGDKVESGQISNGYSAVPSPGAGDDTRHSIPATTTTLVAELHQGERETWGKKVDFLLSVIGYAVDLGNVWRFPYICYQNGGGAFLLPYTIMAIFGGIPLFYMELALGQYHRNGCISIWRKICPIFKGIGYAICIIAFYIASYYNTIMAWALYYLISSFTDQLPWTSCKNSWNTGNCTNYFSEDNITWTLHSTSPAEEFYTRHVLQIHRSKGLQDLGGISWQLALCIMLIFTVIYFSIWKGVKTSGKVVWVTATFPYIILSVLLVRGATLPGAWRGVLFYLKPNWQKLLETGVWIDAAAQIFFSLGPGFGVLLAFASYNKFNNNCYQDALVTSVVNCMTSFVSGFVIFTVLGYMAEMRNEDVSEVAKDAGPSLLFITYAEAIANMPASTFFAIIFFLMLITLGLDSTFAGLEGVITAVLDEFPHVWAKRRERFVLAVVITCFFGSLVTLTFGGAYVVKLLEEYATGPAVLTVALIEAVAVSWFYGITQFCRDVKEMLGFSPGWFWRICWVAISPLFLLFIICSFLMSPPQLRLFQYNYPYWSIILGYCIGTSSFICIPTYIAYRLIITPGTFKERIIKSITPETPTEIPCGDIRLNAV

In the case of `CC[C@@]1([C@@H]2O[C@@H]([C@H]3O[C@@](O)(CO)[C@H](C)C[C@@H]3C)C[C@@H]2C)CC[C@H]([C@]2(C)CC[C@]3(C[C@H](O)[C@@H](C)[C@@H]([C@@H](C)[C@@H](OC)[C@H](C)C(=O)O)O3)O2)O1` [monensin, reference compound], the “effect of monensin alone on substrate release (basal efflux)” value (hDAT [1]; monensin 10 μM alone, P < 0.05, Mann–Whitney test) is reported as “significant albeit modest increase”.

In the case of `CNC(C)C(O)c1ccc(C)cc1.Cl` (stereo not drawn) [Dihydromephedrone, 2‐(methylamino)‐1‐(p‐tolyl)propan‐1‐ol hydrochloride], the IC50 (hDAT [2]; IC50 on uptake mediated by hDAT, mean (95% confidence interval)) is reported as 24 µM, the “efficacy of uptake inhibition at hDAT” value (hDAT [2]) is reported as “fully efficacious inhibitors of uptake” and the IC50 (hSERT; IC50 on uptake mediated by hSERT, mean (95% confidence interval)) is reported as 65 µM. For the same molecule, the “efficacy of uptake inhibition at hSERT” value (hSERT) was “fully efficacious inhibitors of uptake”, the IC50 (hNET [3]; IC50 on uptake mediated by hNET, mean (95% confidence interval)) was 24 µM and 23.5 µM and the “efficacy of uptake inhibition at hNET” value (hNET [3]) was “fully efficacious inhibitors of uptake”. For the same molecule, the “enhancement by monensin of drug-evoked [3H]-MPP+ release at hNET (AUC)” value (hNET [4]) was “not” and the “enhancement by monensin of drug-evoked [3H]-MPP+ release at hDAT (AUC)” value (hDAT [1]; test drug 10 μM, monensin 10 μM, post hoc Bonferroni) was “not”.
